Read-outs that look alike come from different tables or passages of the source.
Tests used:
[1] = tested on: HeLa cells; test: cells; conditions: for viability at 500 µM / CC50: Homo sapiens, HeLa; for viability at 500 µM: 65 h; for CC50: read-out: HeLa ED50; for HeLa Cells Alamar Blue: Supplementary Table 1
Method in brief: (§1)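 Alamar Blue read-out after a 5 h dye incubation that followed ~65 h compound exposure. Cells: HeLa or A549, 2 × 10^4/well, DMEM + 10% FCS + 2 mM L-Glutamine.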

[2] = tested on: A549 cells; test: Cytotoxicity against A549 cells, Alamar Blue; format: cell-based; conditions: Supplementary Table 1, compound 0.5 mM, percentage of controls (n=1); for viability at 500 µM: Homo sapiens, A549, 65 h
Method in brief: as §1

[3] = read-out: HeLa Cells Alamar Blue
[4] = compound 0.5 mM, percentage of controls, mean ± SD (n=3) or SE (n=2)

Row | SMILES | viability at 500 µM [1, 3] [%] | viability at 500 µM [2] [%] | further results
1 | Cc1cccc(N2CCNCC2)c1C [compound 549, 1‐(2,3‐dimethylphenyl)piperazine] | 10.1 ± 5.7 | 13.6 | –
2 | Cc1cc(C)on1 [compound 4, 3,5‐dimethylisoxazole] | 108 ± 5.3 | 123 | –
3 | Cc1cc(N)c(N)cc1Cl [compound 240, 4-chloro-5-methylbenzene-1,2-diamine] | 12.1 ± 8.7 | 14.7 | CC50 [1]: 454 ± 55 µM
4 | O=C(O)CSc1ccc(Cl)cc1 [compound 641, 2‐[(4‐chlorophenyl)thio]acetic acid] | 105 ± 3.7 | 119 | –
5 | Cc1cccc(CO)n1 [compound 62, (6‐methylpyridin‐2‐yl)methanol] | 98.6 ± 7.3 | 67.5 | –
6 | Cc1cc(C)n(C)n1 [compound 24, 1,3,5‐trimethyl‐1H‐pyrazole] | 99.7 ± 11.5 | 88.5 | –
7 | O=C(O)C1COc2ccccc2C1 (stereo not shown) [compound 431, 3‐chromanecarboxylic acid] | 102 ± 5.9 | 95.8 | –
8 | NCc1ccc2occc2c1 [compound 165, 1‐benzofuran‐5‐ylmethylamine] | 92.6 ± 8.6 | 90.7 | –
9 | OCc1cc(-c2cccs2)on1 [compound 462, [5‐(2‐thienyl)‐3‐isoxazolyl]methanol] | 75.6 ± 5.9 | 76.2 | –
10 | O=C(O)CSCc1ccccc1 [compound 465, 2‐(benzylthio)acetic acid] | 99 ± 9.3 | 67.9 | –
11 | O=C1N[C@@H](Cc2ccccc2)CO1 [compound 421, (S)‐4‐BENZYL‐2‐OXAZOLIDINONE] | 86 ± 5.1 | 80.2 | –
12 | Cc1ccc(O)c2c1CCC2 [compound 173, 7‐methylindan‐4‐ol] | 43.2 ± 15.6 | 53.7 | –
13 | OCc1ccc(-n2ccnc2)cc1 [compound 386, [4‐(1H‐imidazol‐1‐yl)phenyl]methanol] | 103 ± 15.3 | 101 | –
14 | OCc1ccc2c(c1)OCO2 [compound 200, 1,3‐benzodioxol‐5‐ylmethanol] | 85.2 ± 9.3 | 92.1 | –
15 | Nc1ccncc1 [compound 2, pyridin‐4‐amine] | 103 ± 2.2 | 106 | –
16 | COc1ccc(CC#N)cc1 [compound 161, 2‐(4‐methoxyphenyl)acetonitrile] | – | 88.7 | viability at 500 µM ([1]; read-out: HeLa Cells Alamar Blue, Supplementary Table 1, compound 0.5 mM, percentage of controls, mean ± SD (n=3) or SE (n=2)): 108 ± 3.1%
17 | Nc1ccc2c(c1)OCCCO2 [compound 308, 3,4‐dihydro‐2H‐1,5‐benzodioxepin‐7‐amine] | – | – | HeLa Cells Alamar Blue [1, 4]: 98.7 ± 6.1 percentage of controls; A549 Cells Alamar Blue [2]: 82.8 percentage of controls
18 | OCC1COc2ccccc2C1 (stereo not shown) [compound 300, 3,4‐dihydro‐2H‐chromen‐3‐ylmethanol] | 90 ± 16.3 | 113 | –
19 | OCc1ccc2ncccc2c1 [compound 255, 6‐quinolinylmethanol] | 89.6 ± 6.8 | 84 | –

Row | SMILES | viability at 500 µM [1, 3] [%] | viability at 500 µM [2] [%] | further results
20 | O=C(C1CCNCC1)N1CCCC1 [compound 469, 4‐piperidinyl(1‐pyrrolidinyl)methanone] | 99.5 ± 8.7 | 86.1 | –
21 | c1ccc(-c2cc[nH]n2)cc1 [compound 150, 3‐phenyl‐1H‐pyrazole] | 74.6 ± 17.7 | 82 | –
22 | CCOC(=O)c1sc(Cl)nc1C [compound 672, ethyl 2‐chloro‐4‐methyl‐1,3‐thiazole‐5‐carboxylate] | – | – | HeLa Cells Alamar Blue [1, 4]: 89.6 ± 12.5 percentage of controls; A549 Cells Alamar Blue [2]: 60.5 percentage of controls
23 | Nc1ccccc1N1CCOCC1 [compound 436, 2‐morpholinoaniline] | 79.1 ± 5.8 | 56.4 | –
24 | Cn1c(=S)oc2ccccc21 [compound 310, 3‐methyl‐1,3‐benzoxazole‐2(3H)‐thione] | 103 ± 14.3 | 104 | –
25 | C#Cc1ccc(OCCCC)cc1 [compound 388, 1‐butoxy‐4‐eth‐1‐ynylbenzene] | 107 ± 8 | 114 | –
26 | Cc1nc(CCN)cs1 [compound 141, 2‐(2‐methyl‐1,3‐thiazol‐4‐yl)ethylamine] | 98.9 ± 7.6 | 105 | –
27 | COC(=O)Cc1cccc(OC)c1 [compound 451, methyl 2‐(3‐methoxyphenyl)acetate] | 101 ± 9.6 | 93.2 | –
28 | Cc1c(CO)cnn1-c1ccccc1 [compound 523, (5‐methyl‐1‐phenyl‐1H‐pyrazol‐4‐yl)methanol] | – | – | HeLa Cells Alamar Blue [1, 4]: 75.9 ± 13.5 percentage of controls; A549 Cells Alamar Blue [2]: 57.2 percentage of controls
29 | CNCc1ccc2ncccc2c1 [compound 366, N‐methyl‐N‐(quinolin‐6‐ylmethyl)amine] | 64.6 ± 11.4 | 74.6 | –
30 | OCc1ccc(-c2cncnc2)cc1 [compound 505, (4‐pyrimidin‐5‐ylphenyl)methanol] | 78.6 ± 20 | 85.3 | –
31 | Clc1ccsc1 [compound 48, 3‐chlorothiophene] | 95.5 ± 2 | 101 | –
32 | NCc1cccc(CN2CCCCC2)c1 [compound 655, 3‐piperidin‐1‐ylmethyl benzylamine] | 73.7 ± 15.9 | 126 | –
33 | OCc1cccc(-c2ccncc2)c1 [compound 491, (3‐pyrid‐4‐ylphenyl)methanol] | 34.4 ± 13.8 | 66.8 | –
34 | CC1(C)CC(=O)CC(C)(C)N1 [compound 228, 2,2,6,6‐tetramethyltetrahydro‐4(1H)‐pyridinone] | – | – | HeLa Cells Alamar Blue [1, 4]: 101.3 ± 5.4 percentage of controls; A549 Cells Alamar Blue [2]: 61.9 percentage of controls
35 | OCc1ccc(-c2ccccc2)nc1 [compound 492, (6‐phenyl‐3‐pyridinyl)methanol] | 78.6 ± 15.6 | 81.3 | –
36 | O=C(O)c1ccc(C(F)(F)F)cc1 [compound 539, 4‐(trifluoromethyl)benzoic acid] | 92.4 ± 8.2 | 104 | –
37 | NC(=O)c1cccs1 [compound 80, thiophene‐2‐carboxamide] | 106 ± 17.5 | 90.3 | –
38 | Cc1ccccc1S(N)(=O)=O [compound 355, 2‐methylbenzene‐1‐sulfonamide] | 89.1 ± 16.6 | 87.9 | –

Row | SMILES | viability at 500 µM [1, 3] [%] | viability at 500 µM [2] [%] | further results
39 | NC(=O)c1ccccc1N1CCCCC1 [compound 651, 2‐piperidinobenzamide] | 82.4 ± 5.4 | 93.1 | –
40 | OCc1ccc2c(c1)OCCO2 [compound 320, 2,3‐dihydro‐1,4‐benzodioxin‐6‐ylmethanol] | – | – | HeLa Cells Alamar Blue [1, 4]: 111.9 ± 16.4 percentage of controls; A549 Cells Alamar Blue [2]: 78.8 percentage of controls
41 | Cn1ccc2ccc(C(=O)O)cc21 [compound 398, 1‐methyl‐1H‐indole‐6‐carboxylic acid] | 109 ± 10.3 | 101 | –
42 | O=C(O)c1cccc(-c2ccsc2)c1 [compound 650, 3‐thien‐3‐ylbenzoic acid] | 114 ± 15.9 | 165 | –
43 | Fc1ccc(N2CCNCC2)cc1 [compound 457, 1‐(4‐fluorophenyl)piperazine] | 12.7 ± 10.1 | 74.7 | –
44 | NCc1ccc(-n2cccc2)cc1 [compound 365, 4‐(1H‐pyrrol‐1‐yl)benzylamine] | 50.9 ± 11 | 94.4 | CC50 [1]: 71.8 ± 3.7 µM
45 | OCCc1ccc2c(c1)OCO2 [compound 321, 2‐(1,3‐benzodioxol‐5‐yl)ethanol] | 109 ± 5.9 | 138 | –
46 | O=C1CSC(c2cccs2)C1 (stereo not shown) [compound 482, 5‐(2‐thienyl)tetrahydrothiophen‐3‐one] | 116 ± 6.7 | 112 | –
47 | Cc1noc(N)c1C [compound 32, 3,4‐dimethylisoxazol‐5‐amine] | 76.4 ± 5.7 | 71.7 | –
48 | N#CC1(O)CN2CCC1CC2 (stereo not shown) [compound 208, 3‐hydroxyquinuclidine‐3‐carbonitrile] | 99.4 ± 11.2 | 61.8 | –
49 | OCc1cccc(Oc2ccccn2)c1 [compound 630, [3‐(pyrid‐2‐yloxy)phenyl]methanol] | 80 ± 1 | 98.3 | –
50 | CNCc1ccc(-c2nccs2)cc1 [compound 654, N‐methyl‐4‐(1,3‐thiazol‐2‐yl)benzylamine] | 66.2 ± 16.9 | 114 | –
51 | CNCc1ccnc(N2CCCCC2)c1 [compound 671, N‐methyl‐N‐[(2‐piperidin‐1‐ylpyridin‐4‐yl)methyl]amine] | – | – | HeLa Cells Alamar Blue [1, 4]: 54.8 ± 9.2 percentage of controls; A549 Cells Alamar Blue [2]: 82.7 percentage of controls
52 | Cc1ccc(C(N)=O)cc1C [compound 177, 3,4‐dimethylbenzamide] | 81.7 ± 16.8 | 64.2 | –
53 | Nc1cc(F)c(Cl)cc1N [compound 269, 4-chloro-5-fluorobenzene-1,2-diamine] | 23.4 ± 14.8 | 50.4 | CC50 [1]: 431 ± 53 µM
54 | OCc1ccc(Cn2cccn2)cc1 [compound 529, [4‐(1H‐pyrazol‐1‐ylmethyl)phenyl]methanol] | – | – | HeLa Cells Alamar Blue [1, 4]: 85 ± 5.2 percentage of controls; A549 Cells Alamar Blue [2]: 94 percentage of controls
55 | COC(=O)c1scc(C)c1N [compound 354, methyl 3‐amino‐4‐methylthiophene‐2‐carboxylate] | – | – | HeLa Cells Alamar Blue [1, 4]: 72.8 ± 8.6 percentage of controls; A549 Cells Alamar Blue [2]: 32.3 percentage of controls
56 | CCOC(=O)C1CCNCC1 [compound 245, ethyl piperidine‐4‐carboxylate] | 97.8 ± 3.2 | 99 | –
